The text below walks through data of US10913727B2, “Modulators of the integrated stress pathway” (Calico Life Sciences LLC, priority 2016, dated 2021).

The assay has as its system HEK293T cells carrying the ATF4 luciferase reporter. The experiment in a line: ATF4-Luc assay, in vitro model of Vanishing Cell White Matter Disease (VWMD). It counts as cell-based. Particulars: Homo sapiens, HEK-293T, 1 μg/mL tunicamycin, 7 hours, One Glo luminescence. A digest of the protocol: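 Compound at 200 nM and tunicamycin at 1 μg/mL were given together for 7 h to HEK293T cells stably transduced with an ATF4 5′-UTR-driven firefly luciferase reporter. Read-out by luminescence, reported as EC50.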
As to `O=C(COc1ccc(Cl)c(F)c1)NC12CC(NC(=O)c3ccc4c(c3)OCO4)(C1)C2` [Compound 239, N-{3-[2-(4-chloro-3-fluorophenoxy)acetamido]bicyclo[1.1.1]pentan-1-yl}-2H-1,3-benzodioxole-5-carboxamide], the half-maximal effective concentration (EC50) was in the range of 50 to 250 nM.
The value for `O=C(COc1ccc(Cl)c(F)c1)NC12CC(Nc3nccn4cnnc34)(C1)C2` [Compound 445, 2-(4-chloro-3-fluorophenoxy)-N-{3-[([1,2,4]triazolo[4,3-a]pyrazin-8-yl)amino]bicyclo[1.1.1]pentan-1-yl}acetamide] was more than 2000 nM; that for `O=C(COc1ccc(Cl)c(F)c1)NC12CC(Nc3nccc(-c4cnn(C(F)F)c4)n3)(C1)C2` [Compound 382, 2-(4-chloro-3-fluorophenoxy)-N-[3-({4-[1-(difluoromethyl)-1H-pyrazol-4-yl]pyrimidin-2-yl}amino)bicyclo[1.1.1]pentan-1-yl]acetamide] was more than 2000 nM.
The value for `CCn1ccc(C(=O)NC23CC(NC(=O)COc4ccc(Cl)c(F)c4)(C2)C3)n1` [Compound 850, N-{3-[2-(4-chloro-3-fluorophenoxy)acetamido]bicyclo[1.1.1]pentan-1-yl}-1-ethyl-1H-pyrazole-3-carboxamide] was 50 to 250 nM; that for `Cc1cnccc1C(=O)NC12CC(NC(=O)COc3ccc(Cl)c(F)c3)(C1)C2` [Compound 814, N-{3-[2-(4-chloro-3-fluorophenoxy)acetamido]bicyclo[1.1.1]pentan-1-yl}-3-methylpyridine-4-carboxamide] was more than 2000 nM; that for `O=C(COc1ccc(Cl)c(F)c1)NC12CCC(NC(=O)c3cc(-n4ccnc4)ccn3)(CC1)CC2O` (centres unmarked) [Compound 934, N-{4-[2-(4-chloro-3-fluorophenoxy)acetamido]-3-hydroxybicyclo[2.2.2]octan-1-yl}-4-(1H-imidazol-1-yl)pyridine-2-carboxamide] was 1000 to 2000 nM.
Take `O=C(COc1ccc(Cl)c(F)c1)NC12CCC(NC(=O)c3onc4ccccc34)(CC1)CC2O` (centres unmarked) [Compound 328, N-{4-[2-(4-chloro-3-fluorophenoxy)acetamido]-3-hydroxybicyclo[2.2.2]octan-1-yl}-2,1-benzoxazole-3-carboxamide]: the EC50 is 1000 to 2000 nM.
As for `COc1cc(F)ccc1C(=O)NC12CC(NC(=O)COc3ccc(Cl)c(F)c3)(C1)C2` [Compound 527, N-{3-[2-(4-chloro-3-fluorophenoxy)acetamido]bicyclo[1.1.1]pentan-1-yl}-4-fluoro-2-methoxybenzamide], the EC50 was 1000 to 2000 nM.
In the case of `O=C(COc1ccc(Cl)c(F)c1)NC12CC(NC(=O)c3cccc(F)c3)(C1)C2` [Compound 508, N-{3-[2-(4-chloro-3-fluorophenoxy)acetamido]bicyclo[1.1.1]pentan-1-yl}-3-fluorobenzamide], the EC50 was 50 to 250 nM.
The value for `CC(=O)Nc1ccc(C(=O)NC23CC(NC(=O)COc4ccc(Cl)c(F)c4)(C2)C3)cn1` [Compound 805, 6-acetamido-N-{3-[2-(4-chloro-3-fluorophenoxy)acetamido]bicyclo[1.1.1]pentan-1-yl}pyridine-3-carboxamide] was more than 2000 nM.
The value for `Cc1cc(C(=O)NC23CC(NC(=O)COc4ccc5c(c4)OC(F)(F)O5)(C2)C3)on1` [Compound 377, N-(3-{2-[(2,2-difluoro-2H-1,3-benzodioxol-5-yl)oxy]acetamido}bicyclo[1.1.1]pentan-1-yl)-3-methyl-1,2-oxazole-5-carboxamide] was 250 to 1000 nM.
Next, `Cc1cc2c(NC34CC(NC(=O)COc5cccc(F)c5)(C3)C4)nccn2n1` [Compound 640, 2-(3-fluorophenoxy)-N-{3-[(2-methylpyrazolo[1,5-a]pyrazin-4-yl)amino]bicyclo[1.1.1]pentan-1-yl}acetamide]: 250 to 1000 nM.
Take `O=C(COc1ccc(Cl)c(F)c1)NC12CC(NC(=O)c3ncccn3)(C1)C2` [Compound 793, N-{3-[2-(4-chloro-3-fluorophenoxy)acetamido]bicyclo[1.1.1]pentan-1-yl}pyrimidine-2-carboxamide]: the EC50 lay in the range of 250 to 1000 nM.
For `O=C(COc1ccc(Cl)c(F)c1)NC12CC(NC(=O)c3nnc4n3CCCC4)(C1)C2` [Compound 844, N-{3-[2-(4-chloro-3-fluorophenoxy)acetamido]bicyclo[1.1.1]pentan-1-yl}-5,6,7,8-tetrahydro[1,2,4]triazolo[4,3-a]pyridine-3-carboxamide], the EC50 was more than 2000 nM.
Regarding `CC(C)Oc1ccc(C(=O)NC23CCC(NC(=O)COc4ccc(Cl)c(F)c4)(CC2)C(O)C3)nc1` (centres unmarked) [Compound 912, N-{4-[2-(4-chloro-3-fluorophenoxy)acetamido]-3-hydroxybicyclo[2.2.2]octan-1-yl}-5-[(propan-2-yl)oxy]pyridine-2-carboxamide], the EC50 is less than 50 nM.
The value for `O=C(COc1ccc(Cl)c(Cl)c1)NC12CCC(NC(=O)c3cnc(C(F)F)cn3)(CC1)C[C@@H]2O` [Compound 703, N-{(3S)-4-[2-(3,4-dichlorophenoxy)acetamido]-3-hydroxybicyclo[2.2.2]octan-1-yl}-5-(difluoromethyl)pyrazine-2-carboxamide] was less than 50 nM.
For `O=C(COc1ccc(Cl)c(F)c1)NC12CCC(NC(=O)c3cnc(-c4ccccc4)o3)(CC1)C[C@@H]2O` [Compound 931, N-{(3S)-4-[2-(4-chloro-3-fluorophenoxy)acetamido]-3-hydroxybicyclo[2.2.2]octan-1-yl}-2-phenyl-1,3-oxazole-5-carboxamide], the EC50 was less than 50 nM.
Next, `CN(C)Cc1ccc(C(=O)NC23CC(NC(=O)COc4ccc(Cl)c(F)c4)(C2)C3)cc1` [Compound 546, N-{3-[2-(4-chloro-3-fluorophenoxy)acetamido]bicyclo[1.1.1]pentan-1-yl}-4-[(dimethylamino)methyl]benzamide]: more than 2000 nM; `Cc1ccc(S(=O)(=O)NC23CC(NC(=O)COc4ccc(Cl)c(F)c4)(C2)C3)cc1` [Compound 662, 2-(4-chloro-3-fluorophenoxy)-N-{3-[(4-methylbenzene-1-sulfonyl)amino]bicyclo[1.1.1]pentan-1-yl}acetamide]: more than 2000 nM.
The value for `O=C(COc1ccc(Cl)c(F)c1)NC12CC(Nc3cnc(C(F)(F)F)cn3)(C1)C2` [Compound 102, 2-(4-chloro-3-fluorophenoxy)-N-(3-{[5-(trifluoromethyl)pyrazin-2-yl]amino}bicyclo[1.1.1]pentan-1-yl)acetamide] was 1000 to 2000 nM; that for `Cc1ccc(C(=O)NC23CCC(NC(=O)COc4ccc(Cl)c(F)c4)(CC2)C(O)C3)o1` (centres unmarked) [Compound 624, N-{4-[2-(4-chloro-3-fluorophenoxy)acetamido]-3-hydroxybicyclo[2.2.2]octan-1-yl}-5-methylfuran-2-carboxamide] was 50 to 250 nM.
As for `NC(=O)c1nccnc1C(=O)NC12CC(NC(=O)COc3ccc(Cl)c(F)c3)(C1)C2` [Compound 853, N-2-{3-[2-(4-chloro-3-fluorophenoxy)acetamido]bicyclo[1.1.1]pentan-1-yl}pyrazine-2,3-dicarboxamide], the EC50 is more than 2000 nM.
For `O=C(COc1ccc(Cl)c(F)c1)NC12CCC(NC(=O)c3cnccn3)(CC1)[C@@H](O)C2` [Compound 732, N-{(2S)-4-[2-(4-chloro-3-fluorophenoxy)acetamido]-2-hydroxybicyclo[2.2.2]octan-1-yl}pyrazine-2-carboxamide], the EC50 lay in the range of 250 to 1000 nM.
Next, `N#Cc1ccc(C(=O)NC23CC(NC(=O)COc4ccc(Cl)c(F)c4)(C2)C3)nc1` [Compound 173, N-{3-[2-(4-chloro-3-fluorophenoxy)acetamido]bicyclo[1.1.1]pentan-1-yl}-5-cyanopyridine-2-carboxamide]: 50 to 250 nM; `Cc1cc(C(=O)NC23CCC(NC(=O)COc4ccc(Cl)c(F)c4)(CC2)[C@H](O)C3)on1` (single isomer, unassigned) [Compound 357]: 250 to 1000 nM; `CN1CCc2c(cccc2NC23CC(NC(=O)COc4ccc(Cl)c(F)c4)(C2)C3)C1` [Compound 491, 2-(4-chloro-3-fluorophenoxy)-N-{3-[(2-methyl-1,2,3,4-tetrahydroisoquinolin-5-yl)amino]bicyclo[1.1.1]pentan-1-yl}acetamide]: more than 2000 nM.
The value for `O=C(COc1ccc(Cl)c(F)c1)NC12CC(NC(=O)c3cccc4c3OCO4)(C1)C2` [Compound 240, N-{3-[2-(4-chloro-3-fluorophenoxy)acetamido]bicyclo[1.1.1]pentan-1-yl}-2H-1,3-benzodioxole-4-carboxamide] was 1000 to 2000 nM; that for `O=C(COc1ccc(Cl)c(F)c1)NC12CCC(NC(=O)c3cccc(C(F)(F)F)n3)(CC1)CC2O` (centres unmarked) [Compound 941, N-{4-[2-(4-chloro-3-fluorophenoxy)acetamido]-3-hydroxybicyclo[2.2.2]octan-1-yl}-6-(trifluoromethyl)pyridine-2-carboxamide] was less than 50 nM; that for `CCn1nc(C)cc1C(=O)NC12CCC(NC(=O)COc3ccc(Cl)c(F)c3)(CC1)C(O)C2` (centres unmarked) [Compound 603, N-{4-[2-(4-chloro-3-fluorophenoxy)acetamido]-3-hydroxybicyclo[2.2.2]octan-1-yl}-1-ethyl-3-methyl-1H-pyrazole-5-carboxamide] was 250 to 1000 nM.
Next, `Cc1nc(C(=O)NC23CCC(NC(=O)COc4ccc(Cl)c(F)c4)(CC2)C(O)C3)n[nH]1` (centres unmarked) [Compound 487, N-{4-[2-(4-chloro-3-fluorophenoxy)acetamido]-3-hydroxybicyclo[2.2.2]octan-1-yl}-5-methyl-1H-1,2,4-triazole-3-carboxamide]: less than 50 nM; `O=C(COc1ccc(Cl)c(F)c1)NC12CC(NC(=O)c3ncc(F)cc3F)(C1)C2` [Compound 910, N-{3-[2-(4-chloro-3-fluorophenoxy)acetamido]bicyclo[1.1.1]pentan-1-yl}-3,5-difluoropyridine-2-carboxamide]: 50 to 250 nM.
As for `O=C(COc1ccc(F)c(F)c1)NC12CC(NC(=O)c3ccc(CCC4CC4)cn3)(C1)C2` [Compound 291, 5-(2-cyclopropylethyl)-N-{3-[2-(3,4-difluorophenoxy)acetamido]bicyclo[1.1.1]pentan-1-yl}pyridine-2-carboxamide], the EC50 was 50 to 250 nM.

One may read the EC50 as the concentration at which the effect is half-maximal.
